Results: ChEMBL document CHEMBL4706582, “Design, synthesis and molecular docking study of α-triazolylsialosides as non-hydrolyzable and potent CD22 ligands” (Eur J Med Chem, 2020)

Tests used:
B-cell receptor CD22 = molecular target: T1, B-cell receptor CD22 (Homo sapiens, UniProt P20273); assay: Binding affinity to recombinant human CD22d1-3-Fc expressed in 293T cells by surface plasmon resonance assay; set-up: species or system HEK293T
T1 sequence (P20273 whole entry): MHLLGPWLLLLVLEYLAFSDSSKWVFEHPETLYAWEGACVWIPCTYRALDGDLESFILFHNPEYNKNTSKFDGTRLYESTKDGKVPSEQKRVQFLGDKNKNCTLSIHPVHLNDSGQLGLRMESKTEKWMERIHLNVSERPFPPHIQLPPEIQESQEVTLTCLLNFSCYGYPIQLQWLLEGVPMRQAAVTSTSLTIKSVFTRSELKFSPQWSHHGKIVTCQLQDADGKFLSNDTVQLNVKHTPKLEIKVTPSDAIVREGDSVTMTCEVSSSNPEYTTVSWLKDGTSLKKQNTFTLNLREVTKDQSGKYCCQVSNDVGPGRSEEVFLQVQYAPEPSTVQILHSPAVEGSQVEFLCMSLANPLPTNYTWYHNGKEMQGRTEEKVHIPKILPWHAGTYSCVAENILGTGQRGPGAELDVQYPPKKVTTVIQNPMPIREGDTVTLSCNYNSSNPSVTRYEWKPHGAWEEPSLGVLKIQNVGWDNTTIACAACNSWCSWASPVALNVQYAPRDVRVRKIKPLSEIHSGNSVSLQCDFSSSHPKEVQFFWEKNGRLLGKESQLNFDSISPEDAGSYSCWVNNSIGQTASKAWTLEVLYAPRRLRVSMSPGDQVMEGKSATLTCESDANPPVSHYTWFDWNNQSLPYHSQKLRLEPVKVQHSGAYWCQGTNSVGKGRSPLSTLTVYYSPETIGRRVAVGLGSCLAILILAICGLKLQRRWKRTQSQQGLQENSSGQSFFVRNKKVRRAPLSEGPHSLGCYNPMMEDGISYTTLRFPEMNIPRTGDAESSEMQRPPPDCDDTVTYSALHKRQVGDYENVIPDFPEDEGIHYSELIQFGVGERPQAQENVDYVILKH

[1] = molecular target: T2, Myelin-associated glycoprotein (Homo sapiens, UniProt P20916); assay: Binding affinity to human MAG by surface plasmon resonance assay
T2 sequence (P20916 whole entry): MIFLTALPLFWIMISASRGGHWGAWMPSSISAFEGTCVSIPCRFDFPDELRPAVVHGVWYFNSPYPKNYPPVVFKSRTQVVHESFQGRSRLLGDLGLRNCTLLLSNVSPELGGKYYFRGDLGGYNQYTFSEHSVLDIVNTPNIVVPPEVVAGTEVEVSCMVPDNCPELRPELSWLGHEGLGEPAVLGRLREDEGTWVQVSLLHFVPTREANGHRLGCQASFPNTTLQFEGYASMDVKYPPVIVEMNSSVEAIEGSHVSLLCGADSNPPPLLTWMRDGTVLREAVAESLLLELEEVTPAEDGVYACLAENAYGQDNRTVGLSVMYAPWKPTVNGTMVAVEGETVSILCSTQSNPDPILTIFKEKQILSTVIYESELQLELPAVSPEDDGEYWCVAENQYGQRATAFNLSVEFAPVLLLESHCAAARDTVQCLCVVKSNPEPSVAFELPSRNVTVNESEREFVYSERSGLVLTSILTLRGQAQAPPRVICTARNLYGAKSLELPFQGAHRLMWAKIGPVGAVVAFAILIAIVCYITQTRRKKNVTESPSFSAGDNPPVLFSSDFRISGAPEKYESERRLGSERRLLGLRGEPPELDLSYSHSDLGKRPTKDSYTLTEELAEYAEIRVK

Homo sapiens = species: Homo sapiens; assay: Selectivity index, ratio of Kd for human MAG to Kd for human CD22

Compound | Kd (B-cell receptor CD22) | Kd [1] | Selectivity Index (Homo sapiens)
O=C(Cc1ccc(-c2ccc(O)cc2)cc1)NC[C@@H](O)[C@@H](O)[C@@H]1O[C@](C(=O)O)(n2cc(CC3CCCCC3)nn2)C[C@H](O)[C@H]1NC(=O)CO | 766 nM |  | 
O=C(Cc1ccc(-c2ccc(O)cc2)cc1)NC[C@@H](O)[C@@H](O)[C@@H]1O[C@](C(=O)O)(n2cc(COC3CCCCC3)nn2)C[C@H](O)[C@H]1NC(=O)CO | 860 nM |  | 
O=C(Cc1ccc(-c2ccc(O)cc2)cc1)NC[C@@H](O)[C@@H](O)[C@@H]1O[C@](C(=O)O)(n2cc(-c3ccccc3)nn2)C[C@H](O)[C@H]1NC(=O)CO | 335 nM | 30700 nM | 91.6
O=C(Cc1ccc(-c2ccc(O)cc2)cc1)NC[C@@H](O)[C@@H](O)[C@@H]1O[C@](C(=O)O)(n2cc(Cc3ccccc3)nn2)C[C@H](O)[C@H]1NC(=O)CO | 952 nM |  | 

More lines, in order of falling Kd (B-cell receptor CD22), values ahead:

Kd (B-cell receptor CD22) | Kd [1] | Selectivity Index (Homo sapiens) | Compound
740 nM |  |  | O=C(CCCC[C@H]1SC[C@H]2NC(=O)N[C@H]21)NCCOCCOCCOCCn1cc(-c2ccc(CO[C@]3(C(=O)O)C[C@H](O)[C@@H](NC(=O)CO)[C@H]([C@H](O)[C@H](O)CNC(=O)Cc4ccc(-c5ccc(O)cc5)cc4)O3)cc2)nn1
628 nM |  |  | C#Cc1ccc(CO[C@]2(C(=O)O)C[C@H](O)[C@@H](NC(=O)CO)[C@H]([C@H](O)[C@H](O)CNC(=O)Cc3ccc(-c4ccc(O)cc4)cc3)O2)cc1
620 nM |  |  | O=C(Cc1ccc(-c2ccc(O)cc2)cc1)NC[C@@H](O)[C@@H](O)[C@@H]1O[C@](C(=O)O)(n2cc(-c3ccc(-c4ccccc4)cc3)nn2)C[C@H](O)[C@H]1NC(=O)CO
458 nM | 56400 nM | 123 | O=C(Cc1ccc(-c2ccc(O)cc2)cc1)NC[C@@H](O)[C@@H](O)[C@@H]1OC(OCc2ccccc2)(C(=O)O)CC(O)[C@H]1NC(=O)CO (single isomer, unassigned)
